From patent US11524938B2, “Aromatic sulfonamide derivatives” (Bayer Pharma Aktiengesellschaft, priority 2016, dated 2022) come the findings set out here.

“And” between values parts separate entries of the source, which are not always exact repeats. Identical values can stand only once.

The assay addresses T1, human P2X4 (Homo sapiens, UniProt Q99571).
T1 sequence (Q99571 1-388): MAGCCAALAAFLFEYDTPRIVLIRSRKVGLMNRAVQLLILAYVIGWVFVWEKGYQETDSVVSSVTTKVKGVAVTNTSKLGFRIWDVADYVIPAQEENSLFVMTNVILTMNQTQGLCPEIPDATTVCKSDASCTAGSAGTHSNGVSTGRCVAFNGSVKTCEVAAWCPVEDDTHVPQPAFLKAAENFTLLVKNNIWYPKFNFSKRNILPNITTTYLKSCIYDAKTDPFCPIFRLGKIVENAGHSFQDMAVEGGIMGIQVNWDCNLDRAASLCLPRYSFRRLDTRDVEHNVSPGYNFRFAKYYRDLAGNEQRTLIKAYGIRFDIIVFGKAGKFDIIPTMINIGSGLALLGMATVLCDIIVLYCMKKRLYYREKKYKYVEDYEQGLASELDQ
As to the kind of experiment: Human P2X4 HEK Cell FLIPR Assay. In kind it is cell-based. The settings on record: agonist Bz-ATP at EC80; for Emax: HEK293, HEK293 cells, percentage of maximal inhibition, read-out: Human P2X4 HEK Cells (FLIPR Assay) avg Efficacy [%]; for IC50: HEK293 cells, individual values listed where some fall outside detection range. The gist of the method: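 HEK293 cells stably expressing human P2X4, Fluo8-AM loaded 30 min at 37° C, then compound 30 min at room temperature (0.5% DMSO, pH 7.4 buffer with 1.8 mM CaCl2). Bz-ATP at its daily-determined EC80 added; calcium fluorescence read over 120 sec; IC50 from peak RFU normalized to agonist control, triplicates.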

Regarding `NS(=O)(=O)c1cc(NC(=O)Cc2ccccc2Cl)ccc1-n1cc(-c2cnccn2)cn1` [Example 401, 2-(2-Chlorophenyl)-N-{4-[4-(pyrazin-2-yl)-1H-pyrazol-1-yl]-3-sulfamoylphenyl}acetamide], the Emax worked out at 82% and the IC50 turned out to be 23 nM.
As for `NS(=O)(=O)c1cc(NC(=O)Cc2ccccc2Cl)ccc1-n1cc(-c2ccccn2)cn1` [Example 402, 2-(2-Chlorophenyl)-N-{4-[4-(pyridin-2-yl)-1H-pyrazol-1-yl]-3-sulfamoylphenyl}acetamide], the Emax was determined as 85% and the concentration for half-maximal inhibition (IC50) was 41 nM.
Take `NS(=O)(=O)c1cc(NC(=O)Cc2ccccc2Cl)ccc1-n1cc(-c2cccnc2)cn1` [Example 403, 2-(2-Chlorophenyl)-N-{4-[4-(pyridin-3-yl)-1H-pyrazol-1-yl]-3-sulfamoylphenyl}acetamide]: the Emax is 88% and the IC50 came out at 16 nM.
As to `NS(=O)(=O)c1cc(NC(=O)Cc2ccccc2Cl)ccc1-n1cc(-c2ccncn2)cn1` [Example 404, 2-(2-Chlorophenyl)-N-{4-[4-(pyrimidin-4-yl)-1H-pyrazol-1-yl]-3-sulfamoylphenyl}acetamide], the Emax was 73% and the IC50 stood at 175 nM.
For the compound `NS(=O)(=O)c1cc(NC(=O)Cc2ccccc2F)ccc1-n1cc(-c2ccncn2)cn1` [Example 405, 2-(2-Fluorophenyl)-N-{4-[4-(pyrimidin-4-yl)-1H-pyrazol-1-yl]-3-sulfamoylphenyl}acetamide], the Emax was determined as 65% and the IC50 was 5670 nM.
For `COc1ccc(CC(=O)Nc2ccc(-n3ncc(C(F)(F)F)n3)c(S(N)(=O)=O)c2)cc1` [Example 406, 2-(4-Methoxyphenyl)-N-{3-sulfamoyl-4-[4-(trifluoromethyl)-2H-1,2,3-triazol-2-yl]phenyl}acetamide], in that order: 64% and 6840 nM.
For `COc1ccc(CC(=O)Nc2ccc(-n3cc(C(F)(F)F)nn3)c(S(N)(=O)=O)c2)cc1` [Example 407, 2-(4-Methoxyphenyl)-N-{3-sulfamoyl-4-[4-(trifluoromethyl)-1H-1,2,3-triazol-1-yl]phenyl}acetamide], the Emax was found to be 86% and the IC50 is 429 nM.
The corresponding values for `Cc1ccc(CC(=O)Nc2ccc(-n3ncc(C(F)(F)F)n3)c(S(N)(=O)=O)c2)cc1` [Example 408, 2-(4-Methylphenyl)-N-{3-sulfamoyl-4-[4-(trifluoromethyl)-2H-1,2,3-triazol-2-yl]phenyl}acetamide] are 74% and 2640 nM.
Regarding `Cc1ccc(CC(=O)Nc2ccc(-n3cc(C(F)(F)F)nn3)c(S(N)(=O)=O)c2)cc1` [Example 409, 2-(4-Methylphenyl)-N-{3-sulfamoyl-4-[4-(trifluoromethyl)-1H-1,2,3-triazol-1-yl]phenyl}acetamide], the Emax came to 85% and the IC50 is 445 nM.
The corresponding values for `NS(=O)(=O)c1cc(NC(=O)Cc2ccc(C(F)F)cc2)ccc1-n1ncc(C(F)(F)F)n1` [Example 410, 2-[4-(Difluoromethyl)phenyl]-N-{3-sulfamoyl-4-[4-(trifluoromethyl)-2H-1,2,3-triazol-2-yl]phenyl}acetamide] are 69% and 5450 nM.
The corresponding values for `NS(=O)(=O)c1cc(NC(=O)Cc2ccc(C(F)F)cc2)ccc1-n1cc(C(F)(F)F)nn1` [Example 411, 2-[4-(Difluoromethyl)phenyl]-N-{3-sulfamoyl-4-[4-(trifluoromethyl)-1H-1,2,3-triazol-1-yl]phenyl}acetamide] are 90% and 84 nM.
For `NS(=O)(=O)c1cc(NC(=O)Cc2ccccc2F)ccc1-n1ncc(C(F)(F)F)n1` [Example 412, 2-(2-Fluorophenyl)-N-{3-sulfamoyl-4-[4-(trifluoromethyl)-2H-1,2,3-triazol-2-yl]phenyl}acetamide], in that order: 68% and 1590 nM.
As for `NS(=O)(=O)c1cc(NC(=O)Cc2ccccc2F)ccc1-n1cc(C(F)(F)F)nn1` [Example 413, 2-(2-Fluorophenyl)-N-{3-sulfamoyl-4-[4-(trifluoromethyl)-1H-1,2,3-triazol-1-yl]phenyl}acetamide], the Emax amounted to 89% and the concentration for half-maximal inhibition (IC50) was determined as 74 nM.
With `NS(=O)(=O)c1cc(NC(=O)Cc2ccc(C(F)(F)F)cc2Cl)ccc1-n1ncc(C(F)(F)F)n1` [Example 414, 2-[2-Chloro-4-(trifluoromethyl)phenyl]-N-{3-sulfamoyl-4-[4-(trifluoromethyl)-2H-1,2,3-triazol-2-yl]phenyl}acetamide], the Emax was found to be 20% and the IC50 is greater than 25000 nM.
In the case of `NS(=O)(=O)c1cc(NC(=O)Cc2ccc(C(F)(F)F)cc2Cl)ccc1-n1cc(C(F)(F)F)nn1` [Example 415, 2-[2-Chloro-4-(trifluoromethyl)phenyl]-N-{3-sulfamoyl-4-[4-(trifluoromethyl)-1H-1,2,3-triazol-1-yl]phenyl}acetamide], the Emax stood at 69% and the 50% inhibitory concentration (IC50) amounted to 200 nM.
In the case of `NS(=O)(=O)c1cc(NC(=O)Cc2ccc(Cl)cc2Cl)ccc1-n1ncc(C(F)(F)F)n1` [Example 416, 2-(2,4-Dichlorophenyl)-N-{3-sulfamoyl-4-[4-(trifluoromethyl)-2H-1,2,3-triazol-2-yl]phenyl}acetamide], the Emax stood at 51%; the half-inhibitory concentration (IC50) was 8.3 µM and 17.8 µM and > 25 µM (2×).
Turning to `NS(=O)(=O)c1cc(NC(=O)Cc2ccc(Cl)cc2Cl)ccc1-n1cc(C(F)(F)F)nn1` [Example 417, 2-(2,4-Dichlorophenyl)-N-{3-sulfamoyl-4-[4-(trifluoromethyl)-1H-1,2,3-triazol-1-yl]phenyl}acetamide], the Emax came to 68% and the IC50 stood at 51 nM.
The corresponding values for `NS(=O)(=O)c1cc(NC(=O)Cc2ccccc2Cl)ccc1-c1cncs1` [Example 418, 2-(2-Chlorophenyl)-N-[3-sulfamoyl-4-(1,3-thiazol-5-yl)phenyl]acetamide] are 91% and 15 nM.
Regarding `NS(=O)(=O)c1cc(NC(=O)Cc2ccccc2Cl)ccc1-c1ccsn1` [Example 419, 2-(2-Chlorophenyl)-N-[3-sulfamoyl-4-(1,2-thiazol-3-yl)phenyl]acetamide], the Emax was 89% and the IC50 is 274 nM.
As for `Cc1nc(-c2ccc(NC(=O)Cc3ccccc3Cl)cc2S(N)(=O)=O)cs1` [Example 420, 2-(2-Chlorophenyl)-N-[4-(2-methyl-1,3-thiazol-4-yl)-3-sulfamoylphenyl]acetamide], the Emax is 75% and the IC50 came to 69 nM.
The corresponding values for `COc1nc(-c2ccc(NC(=O)Cc3ccccc3Cl)cc2S(N)(=O)=O)cs1` [Example 421, 2-(2-Chlorophenyl)-N-[4-(2-methoxy-1,3-thiazol-4-yl)-3-sulfamoylphenyl]acetamide] are 86% and 680 nM.
With `COc1ncc(-c2ccc(NC(=O)Cc3ccccc3Cl)cc2S(N)(=O)=O)s1` [Example 422, 2-(2-Chlorophenyl)-N-[4-(2-methoxy-1,3-thiazol-5-yl)-3-sulfamoylphenyl]acetamide], the Emax amounted to 90% and the IC50 turned out to be 46 nM.
As to `Cc1ncc(-c2ccc(NC(=O)Cc3ccccc3Cl)cc2S(N)(=O)=O)s1` [Example 423, 2-(2-Chlorophenyl)-N-[4-(2-methyl-1,3-thiazol-5-yl)-3-sulfamoylphenyl]acetamide], the Emax was 86% and the IC50 turned out to be 53 nM.

As a reminder, the IC50 is the concentration that inhibits the measured activity by half. High values mean lower potency, low ones higher potency.
